According to paper PMC5564600 (Oncotarget, 2017):
Where two headings read alike, the source gives them in different places.

Tests used:
Assay in all cases: biochemical
Assay type in all cases: binding
panel of 442 kinases [1] = biological target: T1, panel of 442 kinases (Homo sapiens, UniProt O75676)
T1 construct: purchased Ambit Biosciences (scanMAXX KINOMEscan)

panel of 442 kinases [2] = biological target: T2, panel of 442 kinases (Homo sapiens, UniProt P51956); conditions: kinase NEK3; for remaining activity at 1 µM: read-out: % of control at 1 µM
T2 construct: purchased Ambit Biosciences (scanMAXX KINOMEscan)
T2 sequence (P51956 1-506): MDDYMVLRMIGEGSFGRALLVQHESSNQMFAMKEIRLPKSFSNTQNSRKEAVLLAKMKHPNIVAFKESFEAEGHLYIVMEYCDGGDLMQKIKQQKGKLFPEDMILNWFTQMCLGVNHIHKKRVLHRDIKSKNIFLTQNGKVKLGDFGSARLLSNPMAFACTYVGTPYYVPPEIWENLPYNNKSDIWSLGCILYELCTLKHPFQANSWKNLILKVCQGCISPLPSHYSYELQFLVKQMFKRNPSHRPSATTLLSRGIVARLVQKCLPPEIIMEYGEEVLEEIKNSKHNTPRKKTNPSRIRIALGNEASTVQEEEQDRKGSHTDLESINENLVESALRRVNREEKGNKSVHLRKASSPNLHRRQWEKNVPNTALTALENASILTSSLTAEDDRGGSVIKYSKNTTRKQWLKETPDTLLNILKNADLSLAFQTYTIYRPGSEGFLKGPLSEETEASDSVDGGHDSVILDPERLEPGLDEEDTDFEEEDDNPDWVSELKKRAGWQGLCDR

panel of 442 kinases [3] = biological target: T3, panel of 442 kinases (Homo sapiens, UniProt Q00537); conditions: kinase PCTK2; for remaining activity at 1 µM: read-out: % of control at 1 µM
T3 construct: purchased Ambit Biosciences (scanMAXX KINOMEscan)

panel of 442 kinases [4] = biological target: T4, panel of 442 kinases (Homo sapiens, UniProt Q08345); conditions: DDR1; for remaining activity at 1 µM: read-out: % of control at 1 µM
T4 construct: purchased Ambit Biosciences (scanMAXX KINOMEscan)

panel of 442 kinases [5] = biological target: T5, panel of 442 kinases (Homo sapiens, UniProt Q96NX5); conditions: CAMK1G; for remaining activity at 1 µM: read-out: % of control at 1 µM
T5 construct: purchased Ambit Biosciences (scanMAXX KINOMEscan)

panel of 442 kinases [6] = biological target: T6, panel of 442 kinases (Homo sapiens, UniProt Q9NRH2); conditions: kinase SNRK; for remaining activity at 1 µM: read-out: SNRK (% of control at 1 µM)
T6 construct: purchased Ambit Biosciences (scanMAXX KINOMEscan)
T6 sequence (Q9NRH2 1-765): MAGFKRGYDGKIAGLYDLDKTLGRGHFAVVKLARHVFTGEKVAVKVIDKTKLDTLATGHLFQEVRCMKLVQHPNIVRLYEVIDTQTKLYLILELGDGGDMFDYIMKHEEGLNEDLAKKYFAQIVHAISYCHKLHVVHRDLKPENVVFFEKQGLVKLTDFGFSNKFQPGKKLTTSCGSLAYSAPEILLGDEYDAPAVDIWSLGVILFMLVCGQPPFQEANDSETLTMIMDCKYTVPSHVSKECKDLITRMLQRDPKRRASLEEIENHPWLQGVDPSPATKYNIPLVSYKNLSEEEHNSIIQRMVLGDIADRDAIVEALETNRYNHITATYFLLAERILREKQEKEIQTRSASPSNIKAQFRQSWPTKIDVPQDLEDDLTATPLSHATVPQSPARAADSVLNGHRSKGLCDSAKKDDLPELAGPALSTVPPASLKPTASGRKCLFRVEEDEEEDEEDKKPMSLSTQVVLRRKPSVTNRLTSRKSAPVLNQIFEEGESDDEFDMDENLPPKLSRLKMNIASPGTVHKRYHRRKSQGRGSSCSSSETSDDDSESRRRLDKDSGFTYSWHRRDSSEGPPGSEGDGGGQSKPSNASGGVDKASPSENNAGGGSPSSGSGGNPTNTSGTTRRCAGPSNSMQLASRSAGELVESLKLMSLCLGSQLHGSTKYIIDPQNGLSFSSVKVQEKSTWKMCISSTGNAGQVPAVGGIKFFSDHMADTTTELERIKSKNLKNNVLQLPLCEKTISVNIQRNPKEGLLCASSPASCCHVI

panel of 442 kinases [7] = biological target: T7, panel of 442 kinases (Homo sapiens, UniProt Q9UF33); conditions: EPHA6; for remaining activity at 1 µM: read-out: % of control at 1 µM
T7 construct: purchased Ambit Biosciences (scanMAXX KINOMEscan)
T7 sequence (Q9UF33 23-1036): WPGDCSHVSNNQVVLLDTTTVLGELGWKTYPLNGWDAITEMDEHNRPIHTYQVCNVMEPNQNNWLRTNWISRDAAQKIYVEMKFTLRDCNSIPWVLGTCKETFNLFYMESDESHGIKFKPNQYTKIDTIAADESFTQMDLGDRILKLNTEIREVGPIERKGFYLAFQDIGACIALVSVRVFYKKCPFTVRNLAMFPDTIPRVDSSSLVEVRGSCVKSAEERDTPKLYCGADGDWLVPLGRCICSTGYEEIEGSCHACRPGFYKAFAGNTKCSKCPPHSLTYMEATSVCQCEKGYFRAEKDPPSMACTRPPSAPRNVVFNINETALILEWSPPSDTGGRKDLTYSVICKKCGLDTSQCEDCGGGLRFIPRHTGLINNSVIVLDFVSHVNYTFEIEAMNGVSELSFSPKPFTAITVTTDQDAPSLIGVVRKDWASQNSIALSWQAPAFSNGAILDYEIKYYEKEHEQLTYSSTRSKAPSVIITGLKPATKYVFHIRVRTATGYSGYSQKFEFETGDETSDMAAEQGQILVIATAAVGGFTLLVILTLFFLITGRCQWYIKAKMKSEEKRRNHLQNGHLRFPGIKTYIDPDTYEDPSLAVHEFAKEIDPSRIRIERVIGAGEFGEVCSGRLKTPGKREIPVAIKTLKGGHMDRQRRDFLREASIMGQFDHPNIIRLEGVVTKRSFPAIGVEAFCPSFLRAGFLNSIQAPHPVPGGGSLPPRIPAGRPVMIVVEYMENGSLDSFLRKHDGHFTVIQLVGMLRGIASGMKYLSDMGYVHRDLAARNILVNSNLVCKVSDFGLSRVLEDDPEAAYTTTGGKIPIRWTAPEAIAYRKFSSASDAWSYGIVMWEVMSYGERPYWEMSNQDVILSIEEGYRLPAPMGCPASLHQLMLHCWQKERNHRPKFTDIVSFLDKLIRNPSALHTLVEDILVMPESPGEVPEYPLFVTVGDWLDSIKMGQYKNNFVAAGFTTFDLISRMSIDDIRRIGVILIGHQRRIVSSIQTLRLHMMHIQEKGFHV

[8] = kinase RPS6KA4(Kin.Dom.1-N-terminal), read-out: RPS6KA4(Kin.Dom.1-N-terminal) (% of control at 1 µM)
[9] = kinase RPS6KA4(Kin.Dom.2-C-terminal), read-out: RPS6KA4(Kin.Dom.2-C-terminal) (% of control at 1 µM)
[10] = 10 µM, read-out: % of control at 10 µM

T3 sequence (Q00537 whole entry): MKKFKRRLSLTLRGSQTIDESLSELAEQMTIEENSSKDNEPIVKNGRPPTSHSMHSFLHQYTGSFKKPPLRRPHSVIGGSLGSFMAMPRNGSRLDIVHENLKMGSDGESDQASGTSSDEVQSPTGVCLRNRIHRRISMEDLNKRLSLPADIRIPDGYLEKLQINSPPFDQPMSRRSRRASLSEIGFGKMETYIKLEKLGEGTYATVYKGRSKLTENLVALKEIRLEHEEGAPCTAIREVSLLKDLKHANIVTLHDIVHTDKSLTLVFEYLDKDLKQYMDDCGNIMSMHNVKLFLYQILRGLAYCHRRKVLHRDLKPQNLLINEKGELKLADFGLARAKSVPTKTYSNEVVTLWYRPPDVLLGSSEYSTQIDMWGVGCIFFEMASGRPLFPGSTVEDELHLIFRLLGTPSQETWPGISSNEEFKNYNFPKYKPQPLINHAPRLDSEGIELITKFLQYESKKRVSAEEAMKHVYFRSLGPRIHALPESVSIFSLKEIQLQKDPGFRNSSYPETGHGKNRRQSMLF
T5 sequence (Q96NX5 whole entry): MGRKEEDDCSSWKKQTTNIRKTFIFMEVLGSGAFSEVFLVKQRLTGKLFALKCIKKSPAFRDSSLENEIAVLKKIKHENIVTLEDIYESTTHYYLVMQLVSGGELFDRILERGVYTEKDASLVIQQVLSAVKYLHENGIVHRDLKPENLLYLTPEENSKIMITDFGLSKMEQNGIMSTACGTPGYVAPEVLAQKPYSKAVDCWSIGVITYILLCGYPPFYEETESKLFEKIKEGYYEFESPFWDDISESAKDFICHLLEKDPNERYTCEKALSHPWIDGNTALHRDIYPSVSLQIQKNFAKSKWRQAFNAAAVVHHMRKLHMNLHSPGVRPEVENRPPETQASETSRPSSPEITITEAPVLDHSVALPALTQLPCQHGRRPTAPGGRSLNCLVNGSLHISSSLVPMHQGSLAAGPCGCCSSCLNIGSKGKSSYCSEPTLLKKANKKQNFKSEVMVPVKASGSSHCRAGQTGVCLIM
T1 sequence (O75676 whole entry): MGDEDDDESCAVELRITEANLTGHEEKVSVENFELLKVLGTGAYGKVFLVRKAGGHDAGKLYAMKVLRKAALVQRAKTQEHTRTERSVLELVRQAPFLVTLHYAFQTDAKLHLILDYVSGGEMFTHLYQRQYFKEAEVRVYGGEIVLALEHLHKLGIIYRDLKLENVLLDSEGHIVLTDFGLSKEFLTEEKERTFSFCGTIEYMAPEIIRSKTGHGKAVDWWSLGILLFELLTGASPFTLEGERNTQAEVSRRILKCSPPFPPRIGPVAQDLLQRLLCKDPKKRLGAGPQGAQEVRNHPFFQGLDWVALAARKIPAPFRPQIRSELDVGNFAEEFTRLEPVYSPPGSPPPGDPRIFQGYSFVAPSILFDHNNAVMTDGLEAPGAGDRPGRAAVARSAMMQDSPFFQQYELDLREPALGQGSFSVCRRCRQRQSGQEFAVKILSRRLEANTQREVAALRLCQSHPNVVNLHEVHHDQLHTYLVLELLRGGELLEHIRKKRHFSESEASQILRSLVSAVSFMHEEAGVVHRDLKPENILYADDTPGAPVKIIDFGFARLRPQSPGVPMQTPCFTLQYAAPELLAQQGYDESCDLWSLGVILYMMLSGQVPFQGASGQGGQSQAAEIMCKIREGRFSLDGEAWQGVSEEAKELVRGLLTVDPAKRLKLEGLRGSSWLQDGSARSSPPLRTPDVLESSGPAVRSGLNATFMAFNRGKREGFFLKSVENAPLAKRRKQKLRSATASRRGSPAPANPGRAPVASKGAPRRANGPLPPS
T4 sequence (Q08345 19-913): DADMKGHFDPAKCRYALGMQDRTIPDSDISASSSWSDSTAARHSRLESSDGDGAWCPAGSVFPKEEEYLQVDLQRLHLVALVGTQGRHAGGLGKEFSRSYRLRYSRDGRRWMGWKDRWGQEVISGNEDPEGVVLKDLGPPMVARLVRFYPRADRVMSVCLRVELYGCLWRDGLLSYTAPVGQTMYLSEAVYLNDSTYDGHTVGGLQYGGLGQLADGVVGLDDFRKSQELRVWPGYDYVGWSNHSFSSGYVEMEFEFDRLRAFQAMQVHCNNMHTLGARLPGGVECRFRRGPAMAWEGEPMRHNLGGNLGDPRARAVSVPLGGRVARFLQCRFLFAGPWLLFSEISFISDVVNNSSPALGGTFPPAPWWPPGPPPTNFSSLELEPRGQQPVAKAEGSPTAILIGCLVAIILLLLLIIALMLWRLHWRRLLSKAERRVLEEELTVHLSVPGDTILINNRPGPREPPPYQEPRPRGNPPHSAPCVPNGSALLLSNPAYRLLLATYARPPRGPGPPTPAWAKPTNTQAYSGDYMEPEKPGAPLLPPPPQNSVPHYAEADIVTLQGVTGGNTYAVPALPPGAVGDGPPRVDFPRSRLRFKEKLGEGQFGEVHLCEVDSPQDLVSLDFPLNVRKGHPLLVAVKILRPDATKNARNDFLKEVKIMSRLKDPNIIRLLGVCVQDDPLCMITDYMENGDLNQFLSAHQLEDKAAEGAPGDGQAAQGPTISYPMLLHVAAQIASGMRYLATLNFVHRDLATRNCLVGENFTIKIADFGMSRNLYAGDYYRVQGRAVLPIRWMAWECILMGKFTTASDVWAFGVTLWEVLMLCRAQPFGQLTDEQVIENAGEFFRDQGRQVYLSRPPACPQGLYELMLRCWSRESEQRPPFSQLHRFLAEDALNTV

Question: With Nc1cc(C(F)(F)F)c(-c2cc(N3CCOCC3)nc(N3CCOCC3)n2)cn1 [Buparlisib] as the molecule, how does the remaining activity at 1 µM (panel of 442 kinases [1]; [8]) read?
Answer: 83%

Question: What about the remaining activity at 10 µM (panel of 442 kinases [1]; kinase RPS6KA4(Kin.Dom.1-N-terminal), read-out: RPS6KA4(Kin.Dom.1-N-terminal) (% of control at 10 µM)) of the same molecule?
Answer: 100%

Question: And the remaining activity at 1 µM (panel of 442 kinases [1]; [9])?
Answer: 94%

Question: And the remaining activity at 10 µM (panel of 442 kinases [1]; kinase RPS6KA4(Kin.Dom.2-C-terminal), read-out: RPS6KA4(Kin.Dom.2-C-terminal) (% of control at 10 µM))?
Answer: 100%

Question: And the remaining activity at 1 µM (panel of 442 kinases [2])?
Answer: 99%

Question: What about the remaining activity at 10 µM (panel of 442 kinases [2]; [10]) of the same molecule?
Answer: 100%

Question: What about the remaining activity at 1 µM (panel of 442 kinases [3]) of the same molecule?
Answer: 87%

Question: And the remaining activity at 10 µM (panel of 442 kinases [3]; [10])?
Answer: 69%

Question: And the remaining activity at 1 µM (panel of 442 kinases [4])?
Answer: 100%

Question: And the remaining activity at 10 µM (panel of 442 kinases [4]; [10])?
Answer: 92%

Question: What about the remaining activity at 1 µM (panel of 442 kinases [5]) of the same molecule?
Answer: 100%

Question: What about the remaining activity at 10 µM (panel of 442 kinases [5]; [10]) of the same molecule?
Answer: 100%

Question: What about the remaining activity at 1 µM (panel of 442 kinases [6]) of the same molecule?
Answer: 90%

Question: What about the remaining activity at 10 µM (panel of 442 kinases [6]; 10 µM, read-out: SNRK (% of control at 10 µM)) of the same molecule?
Answer: 100%

Question: What about the remaining activity at 1 µM (panel of 442 kinases [7]) of the same molecule?
Answer: 93%

Question: And the remaining activity at 10 µM (panel of 442 kinases [7]; [10])?
Answer: 100%

Question: For Cn1c(=O)n(-c2ccc(C(C)(C)C#N)cc2)c2c3cc(-c4cnc5ccccc5c4)ccc3ncc21 [Dactolisib, 2-methyl-2-[4-(3-methyl-2-oxo-8-quinolin-3-yl-2,3-dihydroimidazo[4,5-c]quinolin-1-yl)-phenyl] propionitrile], which remaining activity at 1 µM (panel of 442 kinases [1]; [8]) is on record?
Answer: 100%

Question: And the remaining activity at 1 µM (panel of 442 kinases [1]; [9])?
Answer: 100%

Question: And the remaining activity at 1 µM (panel of 442 kinases [2])?
Answer: 78%

Question: What about the remaining activity at 1 µM (panel of 442 kinases [3]) of the same molecule?
Answer: 100%

Question: And the remaining activity at 1 µM (panel of 442 kinases [4])?
Answer: 100%

Question: What about the remaining activity at 1 µM (panel of 442 kinases [5]) of the same molecule?
Answer: 87%

Question: And the remaining activity at 1 µM (panel of 442 kinases [6])?
Answer: 71%

Question: What about the remaining activity at 1 µM (panel of 442 kinases [7]) of the same molecule?
Answer: 94%

Question: Which results are given for COc1ncc(-c2ccc3nccc(-c4ccnnc4)c3c2)cc1NS(=O)(=O)c1ccc(F)cc1F [Omipalisib]?
Answer: remaining activity at 1 µM (panel of 442 kinases [1]; [8]): 100%; remaining activity at 1 µM (panel of 442 kinases [1]; [9]): 97%; remaining activity at 1 µM (panel of 442 kinases [2]): 93%; remaining activity at 1 µM (panel of 442 kinases [3]): 100%; remaining activity at 1 µM (panel of 442 kinases [4]): 100%; remaining activity at 1 µM (panel of 442 kinases [5]): 100%; remaining activity at 1 µM (panel of 442 kinases [6]): 88%; remaining activity at 1 µM (panel of 442 kinases [7]): 100%

Question: For FC(F)c1nc2ccccc2n1-c1nc(N2CCOCC2)nc(N2CCOCC2)n1 [ZSTK474, 2-(difluoromethyl)-1-[4,6-di(4-morpholinyl)-1,3,5-triazin-2-yl]-1H-benzimidazole], which remaining activity at 1 µM (panel of 442 kinases [1]; [8]) is on record?
Answer: 100%

Question: And the remaining activity at 1 µM (panel of 442 kinases [1]; [9])?
Answer: 100%

Question: And the remaining activity at 1 µM (panel of 442 kinases [2])?
Answer: 73%

Question: And the remaining activity at 1 µM (panel of 442 kinases [3])?
Answer: 100%

Question: What about the remaining activity at 1 µM (panel of 442 kinases [4]) of the same molecule?
Answer: 95%

Question: And the remaining activity at 1 µM (panel of 442 kinases [5])?
Answer: 91%

Question: What about the remaining activity at 1 µM (panel of 442 kinases [6]) of the same molecule?
Answer: 100%

Question: What about the remaining activity at 1 µM (panel of 442 kinases [7]) of the same molecule?
Answer: 88%
